How the values were obtained:
Conditions in all cases: incubation time: 72 h
[1] = tested on: BT-474; assay: normalised response (% of control), CellTox Green; higher = less cell death (100 = DMSO, 0 = benzethonium chloride kill control)
Procedure, shortened: (§1)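 Each entry is the normalised signal at a single concentration within a series. The series comprised 5 concentrations in 10-fold steps over a compound-specific 10,000-fold range, placed in 384-well plates into which breast cancer cell lines were seeded as 20 µl suspension and incubated 72 h. CellTox Green (485/520 nm) fluorescence and then CellTiter-Glo luminescence were read, with signals normalised per plate to 0.1 % DMSO (100) and a positive kill control (0).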

[2] = tested on: BT-549; assay: as above
Procedure, shortened: as §1

[3] = tested on: CAL-120; assay: as above
Procedure, shortened: as §1

[4] = tested on: CAL-148; assay: as above
Procedure, shortened: as §1

[5] = tested on: CAL-51; assay: as above
Procedure, shortened: as §1

[6] = tested on: CAL-85-1; assay: as above
Procedure, shortened: as §1

[7] = tested on: DU-4475; assay: as above
Procedure, shortened: as §1

[8] = tested on: HCC1143; assay: as above
Procedure, shortened: as §1

[9] = tested on: HCC1599; assay: as above
Procedure, shortened: as §1

[10] = tested on: HCC1937; assay: as above
Procedure, shortened: as §1

[11] = tested on: HDQ-P1; assay: as above
Procedure, shortened: as §1

[12] = tested on: MCF-10A; assay: as above
Procedure, shortened: as §1

[13] = tested on: MDA-MB-231; assay: as above
Procedure, shortened: as §1

[14] = tested on: MDA-MB-436; assay: as above
Procedure, shortened: as §1

[15] = tested on: MDA-MB-453; assay: as above
Procedure, shortened: as §1

[16] = tested on: MDA-MB-468; assay: as above
Procedure, shortened: as §1

[17] = tested on: MFM-223; assay: as above
Procedure, shortened: as §1

[18] = tested on: BT-474; assay: normalised response (% of control), CellTiter-Glo; higher = more viable cells (100 = DMSO, 0 = benzethonium chloride kill control)
Procedure, shortened: as §1

[19] = tested on: BT-549; assay: as above
Procedure, shortened: as §1

[20] = tested on: CAL-120; assay: as above
Procedure, shortened: as §1

[21] = tested on: CAL-148; assay: as above
Procedure, shortened: as §1

[22] = tested on: CAL-51; assay: as above
Procedure, shortened: as §1

[23] = tested on: CAL-85-1; assay: as above
Procedure, shortened: as §1

[24] = tested on: DU-4475; assay: as above
Procedure, shortened: as §1

[25] = tested on: HCC1143; assay: as above
Procedure, shortened: as §1

[26] = tested on: HCC1599; assay: as above
Procedure, shortened: as §1

[27] = tested on: HCC1937; assay: as above
Procedure, shortened: as §1

[28] = tested on: HDQ-P1; assay: as above
Procedure, shortened: as §1

[29] = tested on: Hs578T; assay: as above
Procedure, shortened: as §1

[30] = tested on: MCF-10A; assay: as above
Procedure, shortened: as §1

[31] = tested on: MDA-MB-231; assay: as above
Procedure, shortened: as §1

[32] = tested on: MDA-MB-436; assay: as above
Procedure, shortened: as §1

[33] = tested on: MDA-MB-453; assay: as above
Procedure, shortened: as §1

[34] = tested on: MDA-MB-468; assay: as above
Procedure, shortened: as §1

[35] = tested on: MFM-223; assay: as above
Procedure, shortened: as §1

[36] = tested on: SK-BR-3; assay: as above
Procedure, shortened: as §1

| Compound | normalised response [1] [%] | normalised response [2] [%] | normalised response [3] [%] | normalised response [4] [%] | normalised response [5] [%] | normalised response [6] [%] | normalised response [7] [%] | normalised response [8] [%] | normalised response [9] [%] | normalised response [10] [%] | normalised response [11] [%] | normalised response [12] [%] | normalised response [13] [%] | normalised response [14] [%] | normalised response [15] [%] | normalised response [16] [%] | normalised response [17] [%] | normalised response [18] [%] | normalised response [19] [%] | normalised response [20] [%] | normalised response [21] [%] | normalised response [22] [%] | normalised response [23] [%] | normalised response [24] [%] | normalised response [25] [%] | normalised response [26] [%] | normalised response [27] [%] | normalised response [28] [%] | normalised response [29] [%] | normalised response [30] [%] | normalised response [31] [%] | normalised response [32] [%] | normalised response [33] [%] | normalised response [34] [%] | normalised response [35] [%] | normalised response [36] [%] |
| --- | --- | --- | --- | --- | --- | --- | --- | --- | --- | --- | --- | --- | --- | --- | --- | --- | --- | --- | --- | --- | --- | --- | --- | --- | --- | --- | --- | --- | --- | --- | --- | --- | --- | --- | --- | --- |
| Cc1c(C(=O)Nc2ccc(N3C[C@@H](C)O[C@@H](C)C3)nc2)cccc1-c1ccc(OC(F)(F)F)cc1 [Erismodegib] (1000 nM) | 103 | 136 | 99.7 | 110 | 97.5 | 104 | 97.6 | 110 | 103 | 74.5 | 99.7 | 107 | 72.4 | 94.7 | 101 | 111 | 101 | 81.7 | 90.5 | 96.5 | 98.5 | 66.1 | 93 | 98.9 | 89.8 | 101 | 97.9 | 91.7 | 101 | 85.6 | 94.2 | 84.6 | 79.2 | 93.7 | 84.9 | 81.7 |
| CO[C@H](C(=O)[C@@H](O)[C@@H](C)O)[C@@H]1Cc2cc3cc(O[C@H]4C[C@@H](O[C@@H]5C[C@@H](O)[C@H](O)[C@@H](C)O5)[C@H](O)[C@@H](C)O4)c(C)c(O)c3c(O)c2C(=O)[C@H]1O[C@H]1C[C@@H](O[C@@H]2C[C@@H](O)[C@@H](O[C@@H]3C[C@](C)(O)[C@H](O)[C@@H](C)O3)[C@@H](C)O2)[C@H](O)[C@@H](C)O1 [Plicamycin] (10 nM) |  |  |  |  |  |  |  |  |  |  |  |  |  |  |  |  |  | 108 | 104 | 101 | 116 | 74.9 | 103 | 107 | 103 | 117 | 97.7 | 96.4 | 105 | 114 | 103 | 101 | 118 | 109 | 108 | 111 |
| C[C@]12C=CC(=O)C=C1CC[C@@H]1[C@@H]2C(=O)C[C@@]2(C)[C@H]1CC[C@]2(O)C(=O)CO [Prednisone] (10 nM) |  |  |  |  |  |  |  |  |  |  |  |  |  |  |  |  |  | 103 | 98 | 104 | 108 | 118 | 99.9 | 107 | 101 | 96.9 | 95.8 | 96.3 | 96.7 | 109 | 98.7 | 101 | 118 | 98.4 | 104 | 123 |
| CO[C@H]1C[C@@H]2CC[C@@H](C)[C@@](O)(O2)C(=O)C(=O)N2CCCC[C@H]2C(=O)O[C@H]([C@H](C)C[C@@H]2CC[C@@H](O)[C@H](OC)C2)CC(=O)[C@H](C)/C=C(\C)[C@@H](O)[C@@H](OC)C(=O)[C@H](C)C[C@H](C)/C=C/C=C/C=C/1C [Sirolimus] (0.01 nM) |  |  |  |  |  |  |  |  |  |  |  |  |  |  |  |  |  | 99.1 | 97.6 | 95.9 | 91.1 | 87.1 | 89.9 | 104 | 92.4 | 98.3 | 105 | 100 | 94.7 | 106 | 93.6 | 103 | 103 | 94.1 | 95.5 | 106 |
| CN1CCN(c2nc(C3=C(c4c[nH]c5ccccc45)C(=O)NC3=O)c3ccccc3n2)CC1 [Sotrastaurin] (10 nM) |  |  |  |  |  |  |  |  |  |  |  |  |  |  |  |  |  | 93.5 | 94.6 | 91.3 | 93.1 | 123 | 95.8 | 96.8 | 96.1 | 105 | 96.6 | 100 | 101 | 99.6 | 105 | 94.2 | 96.1 | 93.6 | 93.6 | 124 |
| CC/C(=C(\c1ccccc1)c1ccc(OCCN(C)C)cc1)c1ccccc1 [Tamoxifen] (10 nM) |  |  |  |  |  |  |  |  |  |  |  |  |  |  |  |  |  | 103 | 91.8 | 100 | 108 | 83.8 | 98.8 | 104 | 114 | 103 | 103 | 104 | 97.3 | 112 | 100 | 100 | 98.7 | 99.2 | 108 | 100 |
| CN1CCc2c(c3ccccc3n2Cc2ccc(C(=O)NO)cc2)C1 [Tubastatin A] (1 nM) |  |  |  |  |  |  |  |  |  |  |  |  |  |  |  |  |  | 97.3 | 104 | 92.7 | 94.9 | 88.4 | 103 | 102 | 98 | 101 | 97.6 | 96.4 | 97.6 | 99.8 | 96.8 | 87.7 | 103 | 99.5 | 101 | 99.3 |
| CN1CCc2c(c3ccccc3n2Cc2ccc(C(=O)NO)cc2)C1 [Tubastatin A] (10 nM) |  |  |  |  |  |  |  |  |  |  |  |  |  |  |  |  |  | 92.7 | 96.3 | 96.1 | 107 | 67.6 | 107 | 100 | 95.2 | 92.8 | 99.6 | 99.4 | 102 | 101 | 92.4 | 95.2 | 94.1 | 102 | 102 | 93.8 |
| CCc1c(C(=O)C(N)=O)c2c(OCC(=O)O)cccc2n1Cc1ccccc1 [Varespladib] (1 nM) |  |  |  |  |  |  |  |  |  |  |  |  |  |  |  |  |  | 97.6 | 98.7 | 98.1 | 109 | 100 | 97.9 | 93.6 | 99 | 102 | 96.6 | 100 | 103 | 110 | 111 | 102 | 106 | 89.2 | 97.7 | 101 |
| CCc1c(C(=O)C(N)=O)c2c(OCC(=O)O)cccc2n1Cc1ccccc1 [Varespladib] (10 nM) |  |  |  |  |  |  |  |  |  |  |  |  |  |  |  |  |  | 97.2 | 92.9 | 96 | 104 | 107 | 97.3 | 102 | 102 | 95.9 | 97.7 | 97.1 | 104 | 105 | 99.7 | 96 | 95.4 | 98.9 | 102 | 99.1 |
| CCc1c(C(=O)C(N)=O)c2c(OCC(=O)O)cccc2n1Cc1ccccc1 [Varespladib] (1000 nM) | 99.9 | 102 | 106 | 100 | 110 | 114 | 102 | 108 | 99.3 | 105 | 114 | 97.7 | 103 | 103 | 109 | 105 | 97 | 92.6 | 94.2 | 98.2 | 104 | 106 | 97.6 | 101 | 106 | 96.4 | 100 | 100 | 102 | 104 | 103 | 94 | 99.8 | 100 | 95.8 | 100 |
| CC[C@@H]1C(=O)N(C)c2cnc(Nc3ccc(C(=O)N[C@H]4CC[C@H](N5CCN(CC6CC6)CC5)CC4)cc3OC)nc2N1C(C)C [Volasertib] (1 nM) |  |  |  |  |  |  |  |  |  |  |  |  |  |  |  |  |  | 89.7 | 102 | 100 | 105 | 111 | 102 | 100 | 99.9 | 113 | 99.2 | 92.5 | 103 | 102 | 97.6 | 100 | 77.1 | 90.1 | 98.3 | 98.5 |
